Test results taken from article PMC11061835, “Elucidating the Mechanism of Metabolism of Cannabichromene by Human Cytochrome P450s” (Journal of Natural Products, 2024).
Several values for one entry are separate records, joined by “and”; a condition that tells them apart may be missing. Equal entries are not always repeated.

Columns and labels:
[1] = system: BV2 microglial cells, stimulated with lipopolysaccharide (LPS); test: TNFα ELISA in LPS-stimulated BV2 cells; format: cell-based, mouse; settings: 0.1, 1.0, 2.5, 5.0 μM
Description: BV2 cells were a gift from Dr. Bob McCusker, University of Illinois. They were cultured and maintained at 37 °C in a humidified atmosphere of 95% air and 5% CO2 in high-glucose Dulbecco’s modified Eagle’s (DMEM) medium (Cat No. 10-013-CV, Corning Life Sciences), supplemented with 5% heat-inactivated fetal bovine serum (FBS), streptomycin (100 μg/mL), and penicillin (100 units/mL). Stocks of all the minor cannabinoids were made in ethanol and stored at −80 °C and diluted as required before cell treatment. A final concentration of ethanol was maintained at 0.1% in the cell culture experiments.
BV-2 cells were plated at a density of 50 000 cells/well in a 24-well plate at 37 °C under controlled conditions. Cells were pretreated with the minor cannabinoids at various concentrations (0.1, 1.0, 2.5, 5.0 μM) for 4 h and then stimulated with LPS for 24 h. The culture medium was removed and saved for the determination of nitric oxide production through Cayman’s Griess assay. IL-6, TNFα, and Arginase 1 production was also determined utilizing collected medium. For the Greiss assay, in a 96-well plate, 100 μL of culture medium was used, and 50 μL of both Greiss reagent-1 and Greiss reagent-2 was added and incubated for 10 min. The absorbance was measured at 540 nm using a plate reader (SpectraMax iD5). The quantification was done using a calibration curve that was generated using the sodium nitrite standard obtained from Cayman Chemicals.
BV-2 cells were pretreated with the minor cannabinoids as described previously for 4 h in serum media (reduced to 5% FBS). Cells were stimulated with LPS (25 ng/mL in growth media) and allowed to incubate for 24 h. The culture medium was collected, and the concentrations of IL-6 (Cayman Chemicals), TNFα (ThermoFisher Scientific), and arginase 1 (ThermoFisher Scientific) cytokine expression were determined using specific monoclonal antibodies by ELISA kits as per manufacturer’s instructions.

CYP3A4 with CPR = biological target: T1, CYP3A4 with CPR (Homo sapiens, UniProt P08684); test: NADPH activity assay, CYP3A4 with CPR; format: biochemical; settings: CYP3A4, CBC 50 μM vs substrate-free
T1 construct: His-tag; made in house; host or cells: E. coli DH-5α with pTGro7 plasmid (CYP)
T1 sequence (P08684 whole entry): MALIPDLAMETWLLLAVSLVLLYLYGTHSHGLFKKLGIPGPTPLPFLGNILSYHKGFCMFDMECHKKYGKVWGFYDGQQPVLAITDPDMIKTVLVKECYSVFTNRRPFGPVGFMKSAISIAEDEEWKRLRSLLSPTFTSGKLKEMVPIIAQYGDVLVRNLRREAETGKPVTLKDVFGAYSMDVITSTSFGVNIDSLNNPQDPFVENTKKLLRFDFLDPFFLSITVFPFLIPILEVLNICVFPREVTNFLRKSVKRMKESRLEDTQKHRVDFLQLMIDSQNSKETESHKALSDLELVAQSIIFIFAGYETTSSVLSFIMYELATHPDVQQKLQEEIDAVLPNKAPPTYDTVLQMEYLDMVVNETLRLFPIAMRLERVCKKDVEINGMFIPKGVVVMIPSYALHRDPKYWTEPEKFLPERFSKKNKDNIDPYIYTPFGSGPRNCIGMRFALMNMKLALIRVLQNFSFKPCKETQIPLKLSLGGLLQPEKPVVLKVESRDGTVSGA
T1 sequence (P16435 whole entry partner): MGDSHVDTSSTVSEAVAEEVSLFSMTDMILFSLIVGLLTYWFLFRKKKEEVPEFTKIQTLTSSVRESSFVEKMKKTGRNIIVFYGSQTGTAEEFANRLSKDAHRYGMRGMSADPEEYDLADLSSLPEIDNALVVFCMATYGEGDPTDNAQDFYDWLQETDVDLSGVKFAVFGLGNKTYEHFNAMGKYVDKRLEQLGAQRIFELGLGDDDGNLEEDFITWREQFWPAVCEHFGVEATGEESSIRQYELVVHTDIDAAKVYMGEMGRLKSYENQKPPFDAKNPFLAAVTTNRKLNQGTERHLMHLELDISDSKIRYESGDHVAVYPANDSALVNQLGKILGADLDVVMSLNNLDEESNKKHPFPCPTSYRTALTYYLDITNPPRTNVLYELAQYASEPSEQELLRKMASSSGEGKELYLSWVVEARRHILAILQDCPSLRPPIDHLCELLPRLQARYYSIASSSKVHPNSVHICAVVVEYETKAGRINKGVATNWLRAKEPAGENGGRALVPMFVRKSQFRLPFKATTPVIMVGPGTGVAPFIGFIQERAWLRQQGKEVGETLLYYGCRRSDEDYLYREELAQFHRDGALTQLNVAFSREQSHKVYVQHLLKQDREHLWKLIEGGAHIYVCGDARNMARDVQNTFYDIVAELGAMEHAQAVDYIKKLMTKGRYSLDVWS
Description: (§1) CYP-mediated NADPH oxidation was measured using kinetics mode in a Cary 300 UV–vis spectrometer (Agilent Technologies). 0.2 μM (final concentration) of CYP was taken in 0.1 M potassium phosphate buffer (pH 7.4) and incubated with 0.6 μM (final concentration) of CPR for 5 min with a reaction volume of 400 μL. The reaction was initiated with 200 μM of NADPH, and the absorption change was monitored over 10 min at 340 nm. The rate of NADPH consumption (or NADPH to NADP^+ conversion) was calculated by taking the molar extinction coefficient as 6.22 mM^–1 cm^–1 at 340 nm. To estimate the change in NADPH oxidation in the presence of CBC, both CYP and CPR were further incubated using CBC (final concentration 50 μM) for 5 min followed by measuring the change in absorbance at 340 nm as discussed earlier.

CYP2C9 with CPR = biological target: T2, CYP2C9 with CPR (Homo sapiens, UniProt P11712); test: NADPH activity assay, CYP2C9 with CPR; format: biochemical; settings: CYP2C9, CBC 50 μM vs substrate-free
T2 construct: His-tag; made in house; host or cells: E. coli DH-5α with pTGro7 plasmid (CYP)
T2 sequence (P11712 whole entry): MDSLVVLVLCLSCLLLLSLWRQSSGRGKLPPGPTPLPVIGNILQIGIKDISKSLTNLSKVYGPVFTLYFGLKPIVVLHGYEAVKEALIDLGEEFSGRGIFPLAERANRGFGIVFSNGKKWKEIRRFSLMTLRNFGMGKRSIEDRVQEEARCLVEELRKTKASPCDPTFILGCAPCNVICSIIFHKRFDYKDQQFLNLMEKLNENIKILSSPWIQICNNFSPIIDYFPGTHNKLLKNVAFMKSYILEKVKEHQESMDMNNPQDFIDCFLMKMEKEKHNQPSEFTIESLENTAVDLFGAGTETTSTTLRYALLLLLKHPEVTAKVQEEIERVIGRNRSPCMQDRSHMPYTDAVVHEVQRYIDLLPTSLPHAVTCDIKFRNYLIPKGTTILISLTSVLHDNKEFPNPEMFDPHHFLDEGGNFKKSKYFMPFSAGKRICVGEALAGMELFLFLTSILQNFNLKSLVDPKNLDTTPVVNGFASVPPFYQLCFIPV
T2 sequence (P16435 whole entry partner): as the sequence (P16435 whole entry partner) above
Description: as §1

TRPV2 = system: TRPV2; parameters: method as in PMID 30697147; settings: read-out: agonism toward TRPV2; cited from earlier work
CYP3A4 = CYP3A4 (Homo sapiens, UniProt P08684); test: Spectroscopic titration (Soret shift), CYP3A4; format: binding; parameters: His-tag; made in house; host or cells: E. coli DH-5α with pTGro7 plasmid; settings: CYP3A4, absence of CPR
Chain of CYP3A4 (P08684 whole entry): as the sequence (P08684 whole entry) above
Description: CBC binding to various CYPs was determined by analyzing the Soret shift from ∼417 to ∼390 nm. CBC (stock 10 mM) was dissolved in ethanol and titrated with different CYPs at room temperature. Buffer-exchanged CYP2J2, CYP2D6, CYP3A4, and CYP2C8 (concentrations of proteins were kept between 4 and 5 μM) were dissolved in 0.1 M phosphate buffer (pH = 7.4), and initial spectra were recorded from 200 to 800 nm with a prominent peak at 417 nm. The concentration of CBC was varied from 0 to 100 μM keeping the final concentration of substrate in EtOH not more than 1% in cuvette. 0–4 μL of stock CBC was added using a Hamilton syringe in both the sample and blank cuvettes. The mixture was incubated for 5 min at 37 °C, and absorbance spectra were recorded using a Cary Bio 300 UV–vis spectrophotometer (Agilent Technologies, Santa Clara, CA). To eliminate the background absorbance, we derived the final spectra by […].

Compound	effect on TNFα production [1]	percentage increase of NADPH consumption in the presence of CBC (CYP3A4 with CPR) [%]	percentage increase of NADPH consumption in the presence of CBC (CYP2C9 with CPR) [%]	EC50 (TRPV2) [µM]	ΔAmax (spin state change due to heme perturbation) (CYP3A4)	Kd (CYP3A4; read-out: Kd(app))
CCCCCc1cc(O)c2c(c1)OC(C)(CC/C=C(\C)CO)C=C2 (stereo not drawn) [8′-hydroxy-CBC]	increase					
CCCCCc1cc(O)c2c(c1)OC(C)(CCC=C(C)C)C=C2 (stereo not drawn) [CBC, Cannabichromene]		~15	~90	< 10	0.11 ± 0.00 and ~0.11	9.57 µM and ~9.5 µM
